The record followed here is patent US11767341B2, “Lincosamide antibiotics and uses thereof” (President and Fellows of Harvard College, priority 2017, dated 2023).

Assay in all cases: MIC determination
What all share (format): cell-based

For one experiment, the system named is S. aureus ATCC 29213. The note with it: Staphylococcus aureus.
Another experiment relates to S. aureus BAA 977 iErmA. The note with it: Staphylococcus aureus, BAA977.
The subject of experiment [1] is S. aureus MP-549 msr(a) USA 300. The note with it: Staphylococcus aureus, USA300, S. aureus MP-549 msr(a) USA 300.
The subject of experiment [2] is S. aureus Micromyx USA 300. Conditions: Staphylococcus aureus, USA300; S. aureus Micromyx USA 300; read-out: MIC.
For the next experiment, the system named is S. aureus MMX 3035 cErmA. Conditions: Staphylococcus aureus, MMX3035CERMA; S. aureus MMX 3035 cErmA; read-out: MIC.
The test system of the next experiment is S. pneumoniae ATCC 49619. Conditions: Streptococcus pneumoniae, ATCC49619; S. pneumoniae ATCC 49619; read-out: MIC.
The test system of experiment [3] is S. pneumoniae MMX 3028 cErmB. Conditions: Streptococcus pneumoniae, MMX3028CERMB.
Experiment [4] deals with S. pneumoniae MMX 3031 cMefA. Conditions: Streptococcus pneumoniae, MMX3031CMEFA.
For a further experiment, the system named is S. pyogenes ATCC 19615. Conditions: Streptococcus pyogenes, ATCC19615; S. pyogenes ATCC 19615; read-out: MIC.
Experiment [5] deals with S. pyogenes MMX 946 Macrolide-Resistant. The note with it: Streptococcus pyogenes; S. pyogenes MMX 946 Macrolide-Resistant (MacRes); read-out: MIC.
The next experiment concerns E. faecalis ATCC 29212. The note with it: Enterococcus faecalis.
In experiment [6] the test system is E. faecalis MMX 847 Macrolide-Resistant. Conditions: Enterococcus faecalis; E. faecalis MMX 847 Macrolide-Resistant (MacRes); read-out: MIC.
A further experiment relates to C. difficile BAA 1805. The note with it: Clostridioides difficile, BAA1805; C. difficile BAA 1805; read-out: MIC.
The test system of the next experiment is B. fragilis ATCC 25285. Conditions: Bacteroides fragilis, ATCC25285; B. fragilis ATCC 25285; read-out: MIC.
Another experiment concerns K. pneumoniae ATCC 10031. The note with it: Klebsiella pneumoniae, ATCC10031.
The test system of the next experiment is E. coli ATCC 25922. The note with it: Escherichia coli.
Experiment [7] relates to E. coli MMX TolC parent strain. Conditions: Escherichia coli; E. coli MMX TolC parent strain; read-out: MIC.
The next experiment concerns E. coli MMX 0121 ΔTolC. Conditions: Escherichia coli.
Another experiment has as its system E. coli MP-9 ΔTolC. The note with it: Escherichia coli.
Experiment [8] relates to E. coli MP-74 LptD mutant. The note with it: Escherichia coli.
A further experiment relates to P. aeruginosa ATCC 27853. The note with it: Pseudomonas aeruginosa, ATCC27853.
For experiment [9], the system named is P. aeruginosa MMX Mex parent strain. The note with it: Pseudomonas aeruginosa; P. aeruginosa MMX Mex parent strain; read-out: MIC.
In experiment [10] the test system is P. aeruginosa MMX 3476 Δmex. Conditions: Pseudomonas aeruginosa.
For another experiment, the system named is H. influenzae ATCC 49247. Conditions: Haemophilus influenzae, ATCC49247; H. influenzae ATCC 49247; read-out: MIC.
Experiment [11] has as its system S. aureus MP-513 clinical cErm. The note with it: Staphylococcus aureus.
Where [12] appears, read: ATCC29213, S. aureus ATCC 29213, read-out: MIC.
[13] abbreviates: K. pneumoniae ATCC 10031, read-out: MIC.
Where [14] appears, read: ATCC25922, E. coli ATCC 25922, read-out: MIC.
Where [15] appears, read: P. aeruginosa ATCC 27853, read-out: MIC.

≈ marks a conversion by molar mass, not a printed value. Where two headings read alike, the source gives them in different places.

Regarding `CSC1O[C@H]([C@H](NC(=O)[C@H]2NC[C@@H]3C[C@H]4C[C@H]4CO[C@H]32)[C@H](C)Cl)C(O)C(O)[C@H]1O` (stereo in doubt) [FSA-507007], the MIC in the experiment with S. aureus ATCC 29213 (setting [12]) was 0.25 µg/mL (≈ 0.554 µM); in the experiment on S. aureus BAA 977 iErmA it was 0.5 µg/mL (≈ 1.11 µM); in experiment [1], 0.25 µg/mL (≈ 0.554 µM); in experiment [2] it was 0.12 µg/mL (≈ 0.266 µM); in the experiment on S. aureus MMX 3035 cErmA it was above 64 µg/mL; with S. pneumoniae ATCC 49619, 0.12 µg/mL (≈ 0.266 µM). The MIC in experiment [3] is 64 µg/mL (≈ 142 µM); in experiment [4], 0.12 µg/mL (≈ 0.266 µM); in the experiment on S. pyogenes ATCC 19615, at most 0.06 µg/mL; in experiment [5] it was 32 µg/mL (≈ 71 µM); in the experiment with E. faecalis ATCC 29212 (ATCC29212), 16 µg/mL (≈ 35.5 µM); in experiment [6], above 64 µg/mL. Also, the MIC in the experiment on C. difficile BAA 1805 was 4 µg/mL (≈ 8.87 µM); in the experiment on B. fragilis ATCC 25285 it was 32 µg/mL (≈ 71 µM); in the experiment with K. pneumoniae ATCC 10031 (setting [13]) it was above 64 µg/mL; in the experiment on E. coli ATCC 25922 (setting [14]), above 64 µg/mL; in [7] it was above 64 µg/mL; against E. coli MMX 0121 ΔTolC, 8 µg/mL (≈ 17.7 µM). The MIC is 16 µg/mL (≈ 35.5 µM) in the experiment on E. coli MP-9 ΔTolC; 16 µg/mL (≈ 35.5 µM) in experiment [8]; above 64 µg/mL with P. aeruginosa ATCC 27853 (setting [15]); above 64 µg/mL in experiment [9]; 64 µg/mL (≈ 142 µM) in experiment [10]; 2 µg/mL (≈ 4.43 µM) with H. influenzae ATCC 49247.
On to `CSC1O[C@H]([C@H](NC(=O)[C@H]2NC[C@@H]3CNCCO[C@H]32)[C@H](C)Cl)C(O)C(O)[C@H]1O` (stereo partly shown) [FSA-503001], for which the MIC in the experiment with S. aureus ATCC 29213 (setting [12]) is 64 µg/mL (≈ 145 µM); against S. aureus BAA 977 iErmA it was above 64 µg/mL; in [1], above 64 µg/mL; in experiment [11], above 64 µg/mL; against K. pneumoniae ATCC 10031, above 64 µg/mL; in the experiment with E. coli ATCC 25922 (ATCC25922), above 64 µg/mL. Further, the MIC in the experiment on E. coli MP-9 ΔTolC and in the experiment on P. aeruginosa ATCC 27853 was above 64 µg/mL in each case.
Turning to `CSC1O[C@H]([C@H](NC(=O)[C@H]2NC[C@@H]3CN(C)CCO[C@H]32)[C@H](C)Cl)C(O)C(O)[C@H]1O` (stereo partly shown) [FSA-503002], the MIC was 64 µg/mL (≈ 141 µM) in the experiment on S. aureus ATCC 29213 (setting [12]); above 64 µg/mL in the experiment on S. aureus BAA 977 iErmA; above 64 µg/mL in [1]; above 64 µg/mL in experiment [11]; above 64 µg/mL against K. pneumoniae ATCC 10031; above 64 µg/mL against E. coli ATCC 25922 (ATCC25922). Moreover, the MIC against E. coli MP-9 ΔTolC and against P. aeruginosa ATCC 27853 was above 64 µg/mL each time.
`CSC1O[C@H]([C@H](NC(=O)[C@H]2NC[C@@H]3CN(C(=N)N)CCO[C@H]32)[C@H](C)Cl)C(O)C(O)[C@H]1O` (stereo partly shown) [FSA-504057]: the MIC (against S. aureus ATCC 29213 (ATCC29213); in [11]; against K. pneumoniae ATCC 10031; against E. coli ATCC 25922 (ATCC25922); with E. coli MP-9 ΔTolC; with P. aeruginosa ATCC 27853) was above 64 µg/mL each time.
Regarding `CSC1O[C@H]([C@H](NC(=O)[C@H]2NC[C@@H]3CN(CC(=O)O)CCO[C@H]32)[C@H](C)Cl)C(O)C(O)[C@H]1O` (stereo partly shown) [FSA-504063], the MIC (with S. aureus ATCC 29213 (ATCC29213); in experiment [11]; against K. pneumoniae ATCC 10031; against E. coli ATCC 25922 (ATCC25922); against E. coli MP-9 ΔTolC; against P. aeruginosa ATCC 27853) was above 64 µg/mL throughout.
Consider `CSC1O[C@H]([C@H](NC(=O)[C@H]2NC[C@@H]3C[C@@H](c4ccc(F)cc4)CCO[C@H]32)[C@H](C)Cl)C(O)[C@@H](O)[C@H]1O` (stereo partly shown) [FSA-507061], for which the MIC with S. aureus ATCC 29213 (setting [12]) was 0.12 µg/mL (≈ 0.225 µM); against S. aureus BAA 977 iErmA it was 0.25 µg/mL (≈ 0.469 µM); in experiment [1], 0.125 µg/mL (≈ 0.234 µM); in experiment [2], at most 0.06 µg/mL; in the experiment with S. aureus MMX 3035 cErmA, 64 µg/mL (≈ 120 µM); with S. pneumoniae ATCC 49619, at most 0.06 µg/mL. In addition, the MIC in [3] (S. pneumoniae MMX 3028 cErmB, read-out: MIC) was 4 µg/mL (≈ 7.5 µM); in experiment [4], at most 0.06 µg/mL; with S. pyogenes ATCC 19615 it was at most 0.06 µg/mL; in experiment [5], 4 µg/mL (≈ 7.5 µM); in the experiment on E. faecalis ATCC 29212 (ATCC29212, read-out: MIC) it was at most 0.06 µg/mL; in experiment [6], 32 µg/mL (≈ 60 µM). The MIC in the experiment on C. difficile BAA 1805 is 2 µg/mL (≈ 3.75 µM); in the experiment with B. fragilis ATCC 25285, 64 µg/mL (≈ 120 µM); with K. pneumoniae ATCC 10031 (setting [13]) it was 16 µg/mL (≈ 30 µM); in the experiment on E. coli ATCC 25922 (setting [14]), 64 µg/mL (≈ 120 µM); in experiment [7], above 64 µg/mL; in the experiment on E. coli MMX 0121 ΔTolC it was 2 µg/mL (≈ 3.75 µM). Further, the MIC against E. coli MP-9 ΔTolC was 4 µg/mL (≈ 7.5 µM); in experiment [8] it was 8 µg/mL (≈ 15 µM); with P. aeruginosa ATCC 27853 (setting [15]) it was above 64 µg/mL; in experiment [9], above 64 µg/mL; in [10] it was above 64 µg/mL; in the experiment with H. influenzae ATCC 49247, 4 µg/mL (≈ 7.5 µM).
